We go through 32 compounds from US10166216B2 (Rigel Pharmaceuticals, Inc., priority 2006, dated 2019).

A value given as a limit tells only on which side of the number the result lay.

Sequence of Axl (P30530 26-894): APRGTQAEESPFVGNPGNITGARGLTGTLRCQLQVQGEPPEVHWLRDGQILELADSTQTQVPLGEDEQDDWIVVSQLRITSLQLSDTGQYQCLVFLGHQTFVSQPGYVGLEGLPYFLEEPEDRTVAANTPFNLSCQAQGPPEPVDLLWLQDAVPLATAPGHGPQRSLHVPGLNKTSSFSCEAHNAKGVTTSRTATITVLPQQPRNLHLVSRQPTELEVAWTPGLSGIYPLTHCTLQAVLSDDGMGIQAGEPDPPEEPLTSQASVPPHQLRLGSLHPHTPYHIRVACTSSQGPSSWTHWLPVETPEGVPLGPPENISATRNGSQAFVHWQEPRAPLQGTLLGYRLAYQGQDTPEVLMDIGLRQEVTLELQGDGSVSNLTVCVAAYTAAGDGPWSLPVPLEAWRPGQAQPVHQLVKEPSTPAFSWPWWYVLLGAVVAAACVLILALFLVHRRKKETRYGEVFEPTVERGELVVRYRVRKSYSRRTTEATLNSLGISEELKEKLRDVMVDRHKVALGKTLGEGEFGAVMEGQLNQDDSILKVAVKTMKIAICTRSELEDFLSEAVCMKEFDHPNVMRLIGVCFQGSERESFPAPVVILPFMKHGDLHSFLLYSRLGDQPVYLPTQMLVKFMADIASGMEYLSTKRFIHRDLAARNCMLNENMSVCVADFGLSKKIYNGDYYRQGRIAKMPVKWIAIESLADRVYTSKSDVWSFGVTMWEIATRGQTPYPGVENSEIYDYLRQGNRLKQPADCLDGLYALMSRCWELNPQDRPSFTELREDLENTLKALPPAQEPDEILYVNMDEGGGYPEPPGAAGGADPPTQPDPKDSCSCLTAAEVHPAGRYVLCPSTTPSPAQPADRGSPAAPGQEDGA

One assay concerns the target Axl (Homo sapiens (Human), UniProt P30530). Briefly: Phospho-Akt in-cell Western assay (Axl-antibody cross-linking stimulation). Type of assay: cell-based. The conditions noted are these: inhibition of Axl activity, Hela cells, phospho-Akt readout; Table 5, formula (Ia3). The procedure, abridged:
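HeLa cells on poly-L-lysine, starved 24 hrs with Axl/Fc, pre-treated with compound 1 hr at 37° C., then stimulated 5 min with Axl primary/secondary antibody cluster. Fixed cells probed for phospho-Akt by chemiluminescent in-cell Western; signal normalized to crystal violet cell number.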
A word on the IC50: it is the point on the concentration scale where inhibition reaches its midpoint. A higher IC50 goes with weaker potency. Take `COc1ccc(Nc2nc(N)n(-c3ccccn3)n2)cc1` [Compound 142, N^3-(4-methoxyphenyl)-1-(pyridin-2-yl)-1H-1,2,4-triazole-3,5-diamine]: the IC50 was greater than 20 µM.
The same measure, in the same setting: with `CCOC(=O)c1ccc(Nc2nc(N)n(-c3ccnc(Cl)c3)n2)cc1` [Compound 143, ethyl 4-(5-amino-1-(2-chloropyridin-4-yl)-1H-1,2,4-triazol-3-ylamino)benzoate] the figure was greater than 20 µM.
For the compound `CC(=O)c1ccc(Nc2nc(N)n(-c3cnc4ccccc4n3)n2)cc1` [Compound 144, 1-(4-(5-amino-1-(quinoxalin-2-yl)-1H-1,2,4-triazol-3-ylamino)phenyl)ethanone], the half-inhibitory concentration (IC50) was greater than 20 µM.
On the same count and under the same terms, for `Nc1nc(Nc2ccc(C(=O)O)cc2)nn1-c1ccnc(N2CCC[C@H]2CN2CCCC2)c1` [Compound 146, (S)-4-(5-amino-1-(2-(2-(pyrrolidin-1-ylmethyl)pyrrolidin-1-yl)pyridin-4-yl)-1H-1,2,4-triazol-3-ylamino) benzoic acid] the value was greater than 20 µM; for `CC(=O)c1ccc(Nc2nc(N)n(-c3ccccc3F)n2)cc1` [Compound 147, 1-(4-(5-amino-1-(2-fluorophenyl)-1H-1,2,4-triazol-3-ylamino)phenyl)ethanone], greater than 20 µM; for `Nc1nc(Nc2cc(F)c(F)c(F)c2)nn1-c1ccccn1` [Compound 149, 1-(pyridin-2-yl)-N^3-(3,4,5-trifluorophenyl)-1H-1,2,4-triazole-3,5-diamine], greater than 20 µM.
On to `Nc1nc(Nc2cccc(O)c2)nn1-c1ccccn1` [Compound 150, 3-(5-amino-1-(pyridin-2-yl)-1H-1,2,4-triazol-3-ylamino)phenol], for which the half-maximal inhibitory concentration (IC50) was greater than 20 µM.
In the case of `Nc1nc(Nc2ccc(CCC(=O)N3CCCC3)cc2)nn1-c1cnc2ccccc2n1` [Compound 152, 3-(4-(5-amino-1-(quinoxalin-2-yl)-1H-1,2,4-triazol-3-ylamino)phenyl)-1-(pyrrolidin-1-yl)propan-1-one], the 50% inhibitory concentration (IC50) is greater than 20 µM.
Consider `COc1cc2ncnc(-n3nc(Nc4ccc(OC5CCCN(C)C5)cc4)nc3N)c2cc1OC` (centres unmarked) [Compound 153, 1-(6,7-dimethoxyquinazolin-4-yl)-N^3-(4-(1-methylpiperidin-3-yloxy)phenyl)-1H-1,2,4-triazole-3,5-diamine], for which the half-inhibitory concentration (IC50) is less than 1 µM.
Regarding `CN1CCCC(Oc2ccc(Nc3nc(N)n(-c4nccc5ccccc45)n3)cc2)C1` (centres unmarked) [Compound 155, 1-(isoquinolin-1-yl)-N^3-(4-(1-methylpiperidin-3-yloxy)phenyl)-1H-1,2,4-triazole-3,5-diamine], the IC50 is less than 1 µM.
Turning to `COc1cc2ncnc(-n3nc(Nc4ccc(N5CCOCC5)cc4)nc3N)c2cc1OC` [Compound 158, 1-(6,7-dimethoxyquinazolin-4-yl)-N^3-(4-morpholinophenyl)-1H-1,2,4-triazole-3,5-diamine], the IC50 was less than 1 µM.
On the same count and under the same terms, for `COc1cc2ncnc(-n3nc(Nc4ccc(N5CCOCC5)c(Cl)c4)nc3N)c2cc1OC` [Compound 159, N^3-(3-chloro-4-morpholinophenyl)-1-(6,7-dimethoxyquinazolin-4-yl)-1H-1,2,4-triazole-3,5-diamine] the value was less than 1 µM; for `Nc1nc(Nc2ccc(N3CCOCC3)c(F)c2)nn1-c1nccc2ccccc12` [Compound 161, N^3-(3-fluoro-4-morpholinophenyl)-1-(isoquinolin-1-yl)-1H-1,2,4-triazole-3,5-diamine], less than 1 µM.
As to `COc1cc2ncnc(-n3nc(Nc4ccc(N5CCOCC5)c(F)c4)nc3N)c2cc1OC` [Compound 162, 1-(6,7-dimethoxyquinazolin-4-yl)-N^3-(3-fluoro-4-morpholinophenyl)-1H-1,2,4-triazole-3,5-diamine], the IC50 is less than 1 µM.
In turn, `CN1CCN(Cc2ccc(Nc3nc(N)n(-c4nccc5ccccc45)n3)cc2)CC1` [Compound 163, 1-(isoquinolin-1-yl)-N^3-(4-((4-methylpiperazin-1-yl)methyl)phenyl)-1H-1,2,4-triazole-3,5-diamine] showed a 50% inhibitory concentration (IC50) of less than 1 µM.
The compound `CN(C)[C@@H]1CCN(c2ccc(Nc3nc(N)n(-c4nccc5ccccc45)n3)cc2)C1` [Compound 164, N^3-(4-((R)-3-(dimethylamino)pyrrolidin-1-yl)phenyl)-1-(isoquinolin-1-yl)-1H-1,2,4-triazole-3,5-diamine] gave a 50% inhibitory concentration (IC50) of less than 1 µM.

Staying with this assay, now noted: inhibition of Axl activity, Hela cells, phospho-Akt readout; Table 6, formula (Ib3).
Take `Nc1nc(Nc2ccc(N3CCOCC3)cc2)n(-c2nccc3ccccc23)n1` [Compound 157, 1-(isoquinolin-1-yl)-N^5-(4-morpholinophenyl)-1H-1,2,4-triazole-3,5-diamine]: the IC50 is greater than 20 µM.

Staying with this assay, now noted: inhibition of Axl activity, phospho-Akt in-cell Western assay.
As for `COc1cc2ncnc(-n3nc(Nc4ccc(N5CCN(C6CCCCC6)CC5)c(F)c4)nc3N)c2cc1OC` [Compound 122, N^3-(4-(4-cyclohexylpiperazin-1-yl)-3-fluorophenyl)-1-(6,7-dimethoxyquinazolin-4-yl)-1H-1,2,4-triazole-3,5-diamine], the concentration for half-maximal inhibition (IC50) is less than 1 µM.
`COc1cc2ncnc(-n3nc(Nc4ccc(N5CCN(C6CC7CCC6C7)CC5)c(F)c4)nc3N)c2cc1OC` (centres unmarked) [Compound 123, N^3-(4-(4-(bicyclo[2.2.1]heptan-2-yl)piperazin-1-yl)-3-fluorophenyl)-1-(6,7-dimethoxyquinazolin-4-yl)-1H-1,2,4-triazole-3,5-diamine] gave an IC50 greater than 20 µM.
Same read-out and setting: for `COc1cc2ncnc(-n3nc(Nc4ccc(N5CCN(C6CC7CCCC76)CC5)cc4)nc3N)c2cc1OC` (centres unmarked) [Compound 124, N^3-(4-(4-(bicyclo[3.2.0]heptan-6-yl)piperazin-1-yl)phenyl)-1-(6,7-dimethoxyquinazolin-4-yl)-1H-1,2,4-triazole-3,5-diamine] the value was greater than 20 µM; for `COc1cc2ccnc(-n3nc(Nc4ccc(N5CCN(C6CC7CCC6C7)CC5)cc4)nc3N)c2cc1OC` (centres unmarked) [Compound 125, N^3-(4-(4-(bicyclo[2.2.1]heptan-2-yl)piperazin-1-yl)phenyl)-1-(6,7-dimethoxyisoquinolin-1-yl)-1H-1,2,4-triazole-3,5-diamine], less than 1 µM.
Still for that read-out and setting: with `COc1cc2ccnc(-n3nc(Nc4ccc(N5CCN(C6CCCCCC6)CC5)cc4)nc3N)c2cc1OC` [Compound 126, N^3-(4-(4-cycloheptylpiperazin-1-yl)phenyl)-1-(6,7-dimethoxyisoquinolin-1-yl)-1H-1,2,4-triazole-3,5-diamine] the figure was less than 1 µM.
As to `Nc1nc(Nc2ccc(N3CCN(C4CC5CCC4C5)CC3)cc2)nn1-c1ncnc2sccc12` (centres unmarked) [Compound 127, N^3-(4-(4-(bicyclo[2.2.1]heptan-2-yl)piperazin-1-yl)phenyl)-1-(thieno[2,3-d]pyrimidin-4-yl)-1H-1,2,4-triazole-3,5-diamine], the IC50 is less than 1 µM.
Consider `Nc1nc(Nc2ccc(N3CCN(C4CC5CCC4C5)CC3)cc2)nn1-c1ncnc2ccsc12` (centres unmarked) [Compound 128, N^3-(4-(4-(bicyclo[2.2.1]heptan-2-yl)piperazin-1-yl)phenyl)-1-(thieno[3,2-d]pyrimidin-4-yl)-1H-1,2,4-triazole-3,5-diamine], for which the IC50 is less than 1 µM.
On the same count and under the same terms, for `Nc1nc(Nc2ccc(N3CCN(C4CC5CCC4C5)CC3)cc2)nn1-c1ncnc2cc(-c3ccccc3)sc12` (centres unmarked) [Compound 129, N^3-(4-(4-(bicyclo[2.2.1]heptan-2-yl)piperazin-1-yl)phenyl)-1-(6-phenylthieno[3,2-d]pyrimidin-4-yl)-1H-1,2,4-triazole-3,5-diamine] the value was 1 to 10 µM; for `Nc1nc(Nc2ccc(N3CCN(C4CC5CCC4C5)CC3)cc2)nn1-c1nccc2occc12` (centres unmarked) [Compound 131, N^3-(4-(4-(bicyclo[2.2.1]heptan-2-yl)piperazin-1-yl)phenyl)-1-(furo[3,2-c]pyridin-4-yl)-1H-1,2,4-triazole-3,5-diamine], less than 1 µM.
In turn, `Nc1nc(Nc2ccc(N3CCN(C4CC5CCC4C5)CC3)cc2)nn1-c1ncnc2sc3c(c12)CCC3` (centres unmarked) [Compound 132, N^3-(4-(4-(bicyclo[2.2.1]heptan-2-yl)piperazin-1-yl)phenyl)-1-(6,7-dihydro-5H-cyclopenta[4,5]thieno[2,3-d]pyrimidin-4-yl)-1H-1,2,4-triazole-3,5-diamine] registered a 50% inhibitory concentration (IC50) of 1 to 10 µM.
Consider `Cc1csc2c(-n3nc(Nc4ccc(C5CCN(C6CC7CCC6C7)CC5)cc4)nc3N)nc(Cl)nc12` (centres unmarked) [Compound 134, N^3-(4-(1-(bicyclo[2.2.1]heptan-2-yl)piperidin-4-yl)phenyl)-1-(2-chloro-7-methylthieno[3,2-d]pyrimidin-4-yl)-1H-1,2,4-triazole-3,5-diamine], for which the IC50 is less than 1 µM.
As for `Nc1nc(Nc2ccc(N3CCN(C4CC5CCC4C5)CC3)cc2)nn1-c1nc(C(F)(F)F)nc2ccccc12` (centres unmarked) [Compound 136, N^3-(4-(4-(bicyclo[2.2.1]heptan-2-yl)piperazin-1-yl)phenyl)-1-(2-(trifluoromethyl)quinazolin-4-yl)-1H-1,2,4-triazole-3,5-diamine], the IC50 fell in the range of 1 to 10 µM.
The same measure, in the same setting: with `Cc1nc(-n2nc(Nc3ccc(N4CCN(C5CC6CCC5C6)CC4)cc3)nc2N)c2c(C)c(C)sc2n1` (centres unmarked) [Compound 137, N^3-(4-(4-(bicyclo[2.2.1]heptan-2-yl)piperazin-1-yl)phenyl)-1-(2,5,6-trimethylthieno[2,3-d]pyrimidin-4-yl)-1H-1,2,4-triazole-3,5-diamine] the figure was 1 to 10 µM; with `Cc1sc2ncnc(-n3nc(Nc4ccc(N5CCN(C6CC7CCC6C7)CC5)cc4)nc3N)c2c1C` (centres unmarked) [Compound 138, N^3-(4-(4-(bicyclo[2.2.1]heptan-2-yl)piperazin-1-yl)phenyl)-1-(5,6-dimethylthieno[2,3-d]pyrimidin-4-yl)-1H-1,2,4-triazole-3,5-diamine], 1 to 10 µM; with `Cc1csc2c(-n3nc(Nc4ccc(N5CCN(C6CC7CCC6C7)CC5)c(F)c4)nc3N)nc(Cl)nc12` (centres unmarked) [Compound 140, N^3-(4-(4-(bicyclo[2.2.1]heptan-2-yl)piperazin-1-yl)-3-fluorophenyl)-1-(2-chloro-7-methylthieno[3,2-d]pyrimidin-4-yl)-1H-1,2,4-triazole-3,5-diamine], 1 to 10 µM.
